Like-named read-outs stand apart in the source and are kept apart here. Blank lines part the entries; values can stand above or below the compound they belong to.
Columns and labels:
[1] = molecular target: D2; settings: cited from earlier work
[2] = molecular target: T1, D2/D3 receptors (Macaca mulatta, UniProt F7CYH8); settings: for DBPND^peak / Peak Occ. θ^peak / BP^(0): putamen ROI, animal M1; for BP^(0): baseline [11C]raclopride binding potential
Experimental: (§1) Two animals (male rhesus macaques: M1 (8 years) and M2 (6 years)) underwent PET/MR imaging. For each study, the animal was anesthetized, initially with 10 mg/kg ketamine and 0.5 mg/kg xylazene, and maintained with isoflurane (1%, mixed with oxygen) after intubation.
(§2) [^11C]Raclopride was injected using a bolus+infusion protocol. […] Boluses were administered by hand over a duration of 30 seconds, after which infusion at a rate of 0.01 ml/s was started with an automatic pump (Medrad Spectra Solaris). Specific activities at time of injection were 3.7±2.8 mCi/nmol. […] Experiments and repeated administration of pharmacological challenges in all NHPs were separated by at least 2 weeks, so that results were not influenced from prior history. […] Additionally, the D2 antagonist prochlorperazine was injected at doses 0.1 and 0.2 mg/kg in animal M2 to serve as a direct comparison to the agonists, and to investigate whether the temporal relationship between occupancy and function that was reported for the short-acting antagonist raclopride (10) was maintained for an antagonist with much longer duration of action.
(§3) Simultaneous PET and MR data were acquired on a prototype scanner that includes a BrainPET insert and a Tim Trio 3T MR scanner (Siemens AG, Healthcare Sector, Erlangen Germany). A custom-built tight-fitting PET compatible 8-channel NHP receive array (34) together with a vendor-supplied local circularly polarized transmit coil was used for MR imaging.
PET emission data were acquired in list-mode format for 100 min starting with radiotracer injection. Images were reconstructed with a 3D Poisson ordered-subset expectation maximization algorithm using prompt and variance-reduced random coincidence events. Normalization, scatter and attenuation sinograms (including attenuation of the radiofrequency coil) were included in the reconstruction (37). […] Framing intervals were 10×30 sec, followed by 1 min frames.
(§4) PET and MR data were registered to the Saleem-Logothetis stereotaxic space (38) with an affine transformation (12 degrees of freedom) using a multi-subject MRI template (39), in which standard regions of interest (ROI) were defined based on anatomy. Alignment of the EPI data used an affine transformation plus local distortion fields. After motion-correcting using AFNI software (40), and after spatially smoothing fMRI data with a 2.5 mm Gaussian kernel, statistical analysis was carried out using the general linear model (GLM). The temporal response to the drug injection was modeled with a gamma-variate function, in which the time-to-peak was adjusted to minimize the χ^2/DOF of the GLM fit to the data. […] Additionally, regressors that correspond to translations in three dimensions and were derived from motion correction were used in the GLM analysis. The resulting signal changes were then converted to percentage changes in CBV by standard methods (41).
PET kinetic modeling employed a general linear model formulation of the simplified reference tissue model (SRTM) (14), with cerebellum as the reference ROI, and the rate constant (k2) for cerebellum derived from the high-binding region putamen using a 2-parameter SRTM model (42).

[3] = tested on: D2/D3; settings: reported (ref 19); cited from earlier work
[4] = molecular target: T1, D2/D3 receptors; settings: for Peak CBV: putamen ROI, animal M1
Experimental: as §1, §2, §3
The phased array enabled 2-fold acceleration with GRAPPA (35) in the anterior-posterior direction. […] To improve fMRI detection power, ferumoxytol (Feraheme, AMAG Pharmaceuticals, Cambridge Mass.) was injected at 10 mg/kg prior to fMRI (36).
as §4

[5] = molecular target: T1, D2/D3 receptors; settings: mean±std over doses; model fit to experimental data
Experimental: The process of receptor desensitization and internalization can be considered in a dynamic occupancy model. In an example of a dynamic occupancy model, the following are assumed: • i. The externalization constant kext is very long, and is thus negligible for timescales <2 h. • ii. Once internalized, receptors can be bound with an affinity α by the PET radiotracer. […] The rate to convert desensitized to internalized receptors is negligible with respect to the relevant experimental timescales.
The concentrations of the free ligand and free DA can both be normalized to the baseline DA occupancy at time zero, such that f describes the fraction of free concentration (relative to baseline DA). The parameter θint describes the fraction of internalized receptors and kDI denotes the desensitization and internalization rate constant. The above equations, plus the measurement models for PET and fMRI are a full description of the RDI model employed in this study for simulation and parameter estimation.
The RDI model was used to generate a family of CBV curves for RDI rates in the range of 1 min to 30 min. An estimate of the RDI constant for each dataset was then achieved by minimizing the residual norm between the model and data after drug injection.

[6] = molecular target: D3; settings: cited from earlier work

T1 sequence (F7CYH8 1-443): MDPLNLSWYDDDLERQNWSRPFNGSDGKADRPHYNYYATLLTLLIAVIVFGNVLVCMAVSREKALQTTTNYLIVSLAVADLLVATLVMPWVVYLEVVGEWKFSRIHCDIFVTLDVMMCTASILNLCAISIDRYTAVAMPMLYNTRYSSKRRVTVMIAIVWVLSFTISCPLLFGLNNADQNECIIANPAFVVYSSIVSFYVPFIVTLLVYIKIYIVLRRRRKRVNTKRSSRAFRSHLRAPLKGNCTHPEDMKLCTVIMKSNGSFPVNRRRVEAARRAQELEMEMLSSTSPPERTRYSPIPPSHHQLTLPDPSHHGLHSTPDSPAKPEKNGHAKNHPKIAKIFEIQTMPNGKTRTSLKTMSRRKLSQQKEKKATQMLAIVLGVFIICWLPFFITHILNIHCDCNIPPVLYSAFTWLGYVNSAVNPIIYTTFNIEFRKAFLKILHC

time at which PET occupancy peaked ([2]; animal M2, FIG. 4): 17.8 min
DBPND^peak ([2]; 0.1 mg/kg): 4.7
Peak Occ. θ^peak ([2]; 0.1 mg/kg): 7%
DBPND^peak ([2]; 0.3 mg/kg): 2.9
Peak Occ. θ^peak ([2]; 0.3 mg/kg): 49%
BP^(0) ([2]; 0.1 mg/kg session): 5.1
BP^(0) ([2]; 0.3 mg/kg session): 5.7
CBV timecourse peak time after the injection ([4]; 0.1 mg/kg, animal M2): 4.0 min
duration of CBV response in caudate ([4]; 0.1 mg/kg, animal M2): 28.5 min
CBV timecourse peak time after the injection ([4]; 0.3 mg/kg, animal M2): 3.4 min
duration of CBV response in caudate ([4]; 0.3 mg/kg, animal M2): 25.0 min
CBV^peak signal ([4]; animal M2, FIG. 4 comparison of agonists): −8.5%
Peak CBV ([4]; 0.1 mg/kg): −6.6%
Peak CBV ([4]; 0.3 mg/kg): −9.7%
Compound: CCCN(CCC)CCc1cccc2c1CC(=O)N2 [ropinirole]
Kd [1]: 970 nM
potency compared to quinpirole [3]: about seven times less potent
1/kDI, in vivo desensitization and internalization time constant [5]: 8.5 ± 2.1 min
Kd [6]: 61 nM

occupancy at CBV peak magnitude ([2]; animal M2): 88%
CBV response peak magnitude ([4]; at 88% occupancy, animal M2): 14.4%
Compound: CN1CCN(CCCN2c3ccccc3Sc3ccc(Cl)cc32)CC1 [prochlorperazine]
CBV and occupancy timecourses compared ([4]; animal M2, FIG. 4 graph (c)): CBV and occupancy timecourses were matched

— patent US20170100493A1, “RECEPTOR IMAGING SYSTEMS AND RELATED METHODS” (The General Hospital Corporation, priority 2015, published 2017)
